Assay results: article PMC6406907, “A H2AX–CARP-1 Interaction Regulates Apoptosis Signaling Following DNA Damage” (Cancers, 2019)
No end group written: not given here.

System: γH2AX
Assay: Confocal immunofluorescence of γH2AX, HeLa
Assay type: cell-based, human
Conditions: HeLa expressing EGFP-H2AX (1–35) vs EGFP, Adriamycin-treated
Procedure: Cells were plated onto chamber slides one day before treatment. Following treatment of cells with respective compounds, the adherent cells were fixed with 5% formaldehyde for 10 min and then washed with phosphate buffered saline (PBS). Samples were blocked (0.5% NP-40, 5% milk powder, 1% fetal bovine serum) for 30 min. After a single wash with PBS, cells were incubated with primary antibodies for 45 to 60 min. Coverslips were washed with PBS and then incubated with secondary antibodies for another 45 to 60 min. They were then washed with PBS and mounted with 0.1 μg/mL 4′,6′-diamidino-2-phenylindole (DAPI) containing mounting solution. […]
Our next objective was to analyze the biological significance of the CARP-1–H2AX interaction in cells. […] Next, we measured activation of caspases as an apoptosis readout in cells expressing myc-His-tagged wild-type CARP-1 or CARP-1 (Δ600–650) proteins that were either untreated or treated with Adriamycin or CFM compounds as detailed in Section 2. We utilized a lower, 4–5 μM dose of Adriamycin or CFM compounds because a 10 μM Adriamycin dose caused interference in signal output/readout in this particular assay, likely due to background fluorescence that is emitted by higher dose of Adriamycin. […]

For “EGFP-H2AX (1–35): EGFP-tagged fusion protein stably expressed in MDA-MB-468 and HeLa sublines (MSGRGKTGGKARAKAKSRSSRAGLQFPVGRVHRLL; also: EGFP fusion, end not given here; UniProt P16104 1-35, looked up, fragment)”, the “nuclear presence of γH2AX” value was “increased nuclear presence of γH2AX”.
